This is an account of results in ChEMBL document CHEMBL1201862, “PubChem BioAssay data set” (2004).

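These data come from cells grown in 96-well plates and exposed to compound for 48 hours at five concentrations. Abbreviation: GI50, concentration required for 50% inhibition of growth.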 Active and inactive are the calls of the source. No stated cut-off is given here; in the data, active = GI50 up to about 1.1 µM and inactive = higher.

Among the test systems are UO-31; M14; CCRF-CEM; HL-60; SF-539; U-251; HCT-116; SW-620; SK-MEL-5; PC-3; HOP-92; OVCAR-5; NCI-H522; SR; 786-0; SK-MEL-2; OVCAR-4; HCC 2998; RPMI-8226; A498.
What all share (test): NCI tumour cell line growth inhibition, 48 h

On to `COc1cc2c(cc1OCCCOc1cc3c(cc1OC)C(=O)N1CCC[C@H]1CN3)N=C[C@@H]1CCCN1C2=O`, for which the GI50 was 2.17 µM (inactive) in the test with UO-31; 0.0753 µM (active) with M14; < 0.01 µM (active) in the test on CCRF-CEM; 0.0291 µM (active) in the test on HL-60; 0.024 µM (active) in the test on SF-539; 0.0189 µM (active) in the test on U-251. Moreover, the GI50 in the test on HCT-116 is 0.124 µM (active); with SW-620, 0.127 µM (active); in the test with SK-MEL-5, 0.126 µM (active); in the test with PC-3, 0.279 µM (active); in the test with HOP-92 it was 0.145 µM (active); with OVCAR-5 it was 0.182 µM (active). Further, the GI50 in the test on NCI-H522 is < 0.0127 µM (active); with SR it was < 0.01 µM (active); in the test on 786-0, 0.0656 µM (active); in the test with SK-MEL-2, 0.0977 µM (active); with OVCAR-4, 0.67 µM (active).
Regarding `CCOC(=O)C(=O)/C(=C/NC(=S)c1ccncc1)C(=O)OCC`, the GI50 was 5.71 µM (inactive) with UO-31; > 100 µM (inactive) in the test on M14; > 100 µM (inactive) with CCRF-CEM; > 100 µM (inactive) in the test with HL-60; > 100 µM (inactive) in the test on SF-539; > 100 µM (inactive) in the test with HCC 2998. Besides, the GI50 with U-251, with RPMI-8226, in the test with HCT-116, in the test on SW-620, in the test with SK-MEL-5 and in the test with PC-3 was > 100 µM (inactive) each time. The GI50 with A498, in the test with OVCAR-5, in the test with NCI-H522, in the test on SR, with 786-0 and in the test with SK-MEL-2 was > 100 µM (inactive) throughout. Besides, the GI50 in the test with OVCAR-4 was > 100 µM (inactive).
In the case of `CC(=O)OC(Cc1cc(C=C(C(F)(F)F)C(F)(F)F)cc(C)n1)(C(F)(F)F)C(F)(F)F`, the GI50 in the test on UO-31 was 1.64 µM (inactive); with M14 it was 1.57 µM (inactive); with CCRF-CEM it was 0.217 µM (active); in the test on HL-60, 0.124 µM (active); with SF-539, 2.06 µM (inactive); in the test with HCC 2998, 5.2 µM (inactive). Besides, the GI50 in the test on U-251 is 1.55 µM (inactive); in the test with RPMI-8226, 0.656 µM (active); with HCT-116 it was 1.1 µM (active); in the test on SW-620, 1.28 µM (inactive); with SK-MEL-5 it was 1.49 µM (inactive); in the test on PC-3 it was 1.77 µM (inactive). Further, the GI50 in the test on A498 is 1.75 µM (inactive); in the test on OVCAR-5 it was 2.18 µM (inactive); in the test with NCI-H522, 2.01 µM (inactive); in the test on SR it was 0.352 µM (active); in the test with 786-0, 0.839 µM (active); in the test on SK-MEL-2, 2.1 µM (inactive). The GI50 with OVCAR-4 is 1.72 µM (inactive).
Turning to `C=CC1CN(C(=O)OCC)N(C(=O)OCC)C1CCc1ccccc1` (centres undefined), the GI50 in the test on UO-31 was 74.1 µM (inactive); in the test with M14 it was > 100 µM (inactive); in the test with CCRF-CEM, 72.4 µM (inactive); with HL-60, 35.6 µM (inactive); with HCC 2998 it was > 100 µM (inactive); in the test with U-251, > 100 µM (inactive). For the same compound, the GI50 with RPMI-8226 is 30.9 µM (inactive); in the test on HCT-116, 67.1 µM (inactive); in the test with SK-MEL-5, 64.1 µM (inactive); in the test with PC-3 it was 79.1 µM (inactive); in the test with HOP-92, 53.5 µM (inactive); in the test with OVCAR-5, > 100 µM (inactive). The GI50 in the test on NCI-H522 was 39.3 µM (inactive); with SR it was 65.9 µM (inactive); in the test on 786-0 it was > 100 µM (inactive); in the test with SK-MEL-2, > 100 µM (inactive); with OVCAR-4, 57.4 µM (inactive).
Consider `Cc1cn([C@H]2C[C@H](O)[C@@H](CO)O2)c(=O)nc1N`, for which the GI50 in the test on UO-31, in the test with M14, in the test with CCRF-CEM, in the test with HL-60, in the test with SF-539 and in the test on U-251 was > 100 µM (inactive) throughout. The GI50 with RPMI-8226, with HCT-116, with SW-620, with SK-MEL-5, with PC-3 and in the test with A498 was > 100 µM (inactive) throughout. Also, the GI50 in the test with OVCAR-5, in the test with NCI-H522, with SR, in the test with 786-0, in the test with SK-MEL-2 and in the test on OVCAR-4 was > 100 µM (inactive) in each case.
`O=C(NNC(=S)NCc1ccccc1)c1csc(NC(=S)NC2CCCCC2)n1`: the GI50 in the test with UO-31 is 21.8 µM (inactive); with M14, 32.6 µM (inactive); with CCRF-CEM it was 46.2 µM (inactive); in the test on HL-60 it was > 100 µM (inactive); with SF-539, 38 µM (inactive); with HCC 2998, 37.3 µM (inactive). For the same compound, the GI50 is 33.3 µM (inactive) in the test with U-251; 25.9 µM (inactive) in the test on RPMI-8226; 22.3 µM (inactive) with HCT-116; 32.5 µM (inactive) with SW-620; 13.8 µM (inactive) in the test on SK-MEL-5; 37.3 µM (inactive) with PC-3. Besides, the GI50 in the test on A498 was 42 µM (inactive); with OVCAR-5, > 100 µM (inactive); in the test on NCI-H522 it was 35.1 µM (inactive); with SR, 31.5 µM (inactive); in the test with 786-0, 45.8 µM (inactive); in the test with SK-MEL-2, 27 µM (inactive).
`CCC(C)N1CN(c2ccccc2)C2(CCN(CCCC(=O)c3ccc(F)cc3)CC2)C1=O` (centres undefined): the GI50 was 4.17 µM (inactive) with UO-31; 14.3 µM (inactive) in the test with M14; 0.64 µM (active) in the test on CCRF-CEM; 4.76 µM (inactive) in the test on HL-60; 7.71 µM (inactive) in the test on SF-539; 4.47 µM (inactive) in the test with U-251. Besides, the GI50 in the test on RPMI-8226 was 5.52 µM (inactive); in the test with HCT-116, 0.697 µM (active); with SW-620 it was 3.77 µM (inactive); in the test with SK-MEL-5, 1.19 µM (inactive); in the test on PC-3 it was 10.6 µM (inactive); in the test on A498, 2.82 µM (inactive). For the same compound, the GI50 is 0.839 µM (active) with OVCAR-5; 7.85 µM (inactive) in the test with NCI-H522; 5.98 µM (inactive) in the test with SR; > 100 µM (inactive) with 786-0; 14.9 µM (inactive) in the test on SK-MEL-2; 3.03 µM (inactive) with OVCAR-4.
As for `CSc1cnn(CCC#N)c(=O)n1`, the GI50 was > 100 µM (inactive) in the test with UO-31; > 100 µM (inactive) in the test on M14; 31 µM (inactive) in the test on CCRF-CEM; 33.2 µM (inactive) in the test with HL-60; > 100 µM (inactive) in the test on SF-539; > 100 µM (inactive) with HCC 2998. Also, the GI50 in the test on U-251 was > 100 µM (inactive); with RPMI-8226, > 100 µM (inactive); in the test with HCT-116, > 100 µM (inactive); in the test with SW-620, 74.6 µM (inactive); in the test on SK-MEL-5 it was 26.4 µM (inactive); in the test with PC-3 it was > 100 µM (inactive). Moreover, the GI50 was 74 µM (inactive) in the test on A498; > 100 µM (inactive) in the test with OVCAR-5; > 100 µM (inactive) in the test on NCI-H522; 40.9 µM (inactive) in the test on SR; > 100 µM (inactive) with 786-0.
For the compound `CCCCCCCCCCCCCCCCCCOC(COP(=O)(O)OCC1OC(n2cc(F)c(=O)[nH]c2=O)CC1O)COP(=O)(O)OCC1OC(n2ccc(N)nc2=O)C(O)C1O` (centres undefined), the GI50 was 9.64 µM (inactive) in the test on UO-31; 6.34 µM (inactive) in the test on M14; 4.81 µM (inactive) in the test with CCRF-CEM; 3.66 µM (inactive) with HL-60; 0.863 µM (active) in the test on SF-539; 0.419 µM (active) in the test with HCC 2998. Besides, the GI50 was 7.13 µM (inactive) in the test on U-251; 10.9 µM (inactive) in the test with RPMI-8226; 6.19 µM (inactive) in the test on HCT-116; 60.7 µM (inactive) in the test with SW-620; > 73.5 µM (inactive) in the test on SK-MEL-5; 15.6 µM (inactive) in the test on PC-3. Further, the GI50 in the test on A498 was 0.485 µM (active); in the test with OVCAR-5 it was 66.8 µM (inactive); with NCI-H522 it was > 40.2 µM (inactive); in the test on SR, 0.925 µM (active); with 786-0, 2.82 µM (inactive); in the test on SK-MEL-2, > 67 µM (inactive). The GI50 in the test on OVCAR-4 was 47.1 µM (inactive).
`CC(C)(C)C1CCC2c3c([nH]c4ccccc34)C3C(=O)N(c4ccc5c(c4)C(=O)c4ccccc4C5=O)C(=O)C3C2C1` (centres undefined): the GI50 with M14, in the test with CCRF-CEM, in the test on HL-60, in the test with SF-539, in the test with HCC 2998 and with U-251 was > 100 µM (inactive) throughout. The GI50 in the test on RPMI-8226, with HCT-116, in the test on SW-620, in the test on SK-MEL-5, with PC-3 and in the test on A498 was > 100 µM (inactive) throughout. Further, the GI50 in the test on OVCAR-5, in the test on NCI-H522, in the test on SR, in the test on 786-0, in the test with SK-MEL-2 and with OVCAR-4 was > 100 µM (inactive) throughout.
In the case of `O=c1c2cc([N+](=O)[O-])ccc2n2n1Cc1ccccc1CC2`, the GI50 with UO-31, in the test with M14, in the test on CCRF-CEM, in the test on HL-60, with SF-539 and with HCC 2998 was > 100 µM (inactive) throughout. Besides, the GI50 in the test with U-251, in the test on RPMI-8226, with HCT-116, in the test with SW-620, with SK-MEL-5 and in the test with PC-3 was > 100 µM (inactive) in each case. Also, the GI50 in the test with A498, in the test with OVCAR-5, in the test on NCI-H522, with SR, in the test on 786-0 and in the test on SK-MEL-2 was > 100 µM (inactive) throughout. Also, the GI50 in the test on OVCAR-4 was > 100 µM (inactive).
